Experimental data published in patent US11382328B2, “Rapid drug discovery methods for pathogen inactivation” (priority 2019, dated 2022).

Test system: E. coli strain W3110
Assay: Synergy assays: Biolog chemical sensitivity panels with Group IB metal, coefficient of drug interaction (CDI) from relative growth
Type: cell-based
Settings: for CDI (coefficient of drug interaction), gold + biocide: Gold (μM); for CDI (coefficient of drug interaction), copper mixed with biocide: Copper (mM) section
[1] = Silver 0.5 μM, biocide concentration 4 of 4
[2] = Silver 1.0 μM, biocide concentration 4 of 4
[3] = Silver 5.0 μM, biocide concentration 4 of 4
[4] = 1st of 3 copper concentrations (value not shown), 3rd of four biocide concentrations
[5] = 1st of 3 copper concentrations (value not shown), 4th of four biocide concentrations
[6] = 2nd of 3 copper concentrations (value not shown), 3rd of four biocide concentrations
[7] = 2nd of 3 copper concentrations (value not shown), 4th of four biocide concentrations
[8] = 3rd of 3 copper concentrations (value not shown), 3rd of four biocide concentrations
[9] = 3rd of 3 copper concentrations (value not shown), 4th of four biocide concentrations
[10] = Silver 0.5 μM, 3rd of four biocide concentrations, E. coli
[11] = Silver 0.5 μM, 4th of four biocide concentrations, E. coli
[12] = Silver 1.0 μM, 3rd of four biocide concentrations, E. coli
[13] = Silver 1.0 μM, 4th of four biocide concentrations, E. coli
[14] = Silver 5.0 μM, 3rd of four biocide concentrations, E. coli
[15] = Gold section of Table 5, first of three gold concentrations (μM, value not given), biocide concentration 4 of 4
[16] = Gold section of Table 5, second of three gold concentrations (μM, value not given), biocide concentration 4 of 4
[17] = Gold section of Table 5, third of three gold concentrations (μM, value not given), biocide concentration 4 of 4

Compound	CDI [1]	CDI [2]	CDI [3]	CDI (coefficient of drug interaction), copper mixed with biocide [4]	CDI (coefficient of drug interaction), copper mixed with biocide [5]	CDI (coefficient of drug interaction), copper mixed with biocide [6]	CDI (coefficient of drug interaction), copper mixed with biocide [7]	CDI (coefficient of drug interaction), copper mixed with biocide [8]	CDI (coefficient of drug interaction), copper mixed with biocide [9]	CDI (coefficient of drug interaction), silver + biocide [10]	CDI (coefficient of drug interaction), silver + biocide [11]	CDI (coefficient of drug interaction), silver + biocide [12]	CDI (coefficient of drug interaction), silver + biocide [13]	CDI (coefficient of drug interaction), silver + biocide [14]	CDI (coefficient of drug interaction) [15]	CDI (coefficient of drug interaction) [16]	CDI (coefficient of drug interaction) [17]	further results
CCN1CCN(C(=O)N[C@@H](C(=O)N[C@@H]2C(=O)N3[C@@H]2SC(C)(C)[C@@H]3C(=O)O)c2ccccc2)C(=O)C1=O [piperacillin]	Tox	Tox	Tox	–	–	–	–	–	–	–	–	–	–	–	–	–	–	CDI (coefficient of drug interaction), gold + biocide (first of 3 gold concentrations, biocide concentration 4 of 4): Tox; CDI (coefficient of drug interaction), gold + biocide (second of 3 gold concentrations, biocide concentration 4 of 4): Tox; CDI (coefficient of drug interaction), gold + biocide (third of 3 gold concentrations, biocide concentration 4 of 4): Tox; CDI (Silver 0.5 μM, biocide concentration 3 of 4): Tox; CDI (Silver 1.0 μM, biocide concentration 3 of 4): Tox; CDI (Silver 5.0 μM, biocide concentration 3 of 4): Tox
N.N.N.N.N.N.[Cl-].[Cl-].[Cl-].[Co+3] [hexammine cobalt (III) chloride]	–	–	–	1.19	1.51	1.05	1.59	0.73	0.87	0.97	0.82	1.04	0.39	1.00	–	–	–	CDI (coefficient of drug interaction), copper mixed with biocide (1st of 3 copper concentrations (value not shown), 1st of four biocide concentrations): 1.06; CDI (coefficient of drug interaction), copper mixed with biocide (2nd of 3 copper concentrations (value not shown), 1st of four biocide concentrations): 0.93; CDI (coefficient of drug interaction), copper mixed with biocide (2nd of 3 copper concentrations (value not shown), 2nd of four biocide concentrations): 1.05; CDI (coefficient of drug interaction), copper mixed with biocide (3rd of 3 copper concentrations (value not shown), 1st of four biocide concentrations): 0.94; CDI (coefficient of drug interaction), copper mixed with biocide (3rd of 3 copper concentrations (value not shown), 2nd of four biocide concentrations): 0.90; CDI (coefficient of drug interaction) (Gold 5 μM, biocide concentration 1 of 4, E. coli): 1.09; CDI (coefficient of drug interaction) (Gold 5 μM, biocide concentration 4 of 4, E. coli): 1.10; CDI (coefficient of drug interaction) (Gold 25 μM, biocide concentration 1 of 4, E. coli): 1.09; CDI (coefficient of drug interaction) (Gold 25 μM, biocide concentration 3 of 4, E. coli): 1.08; CDI (coefficient of drug interaction) (Gold 25 μM, biocide concentration 4 of 4, E. coli): 1.25; CDI (coefficient of drug interaction), silver + biocide (Silver 0.5 μM, 1st of four biocide concentrations, E. coli): 0.98; CDI (coefficient of drug interaction), silver + biocide (Silver 0.5 μM, 2nd of four biocide concentrations, E. coli): 1.05; CDI (coefficient of drug interaction), silver + biocide (Silver 1.0 μM, 1st of four biocide concentrations, E. coli): 0.98; CDI (coefficient of drug interaction), silver + biocide (Silver 1.0 μM, 2nd of four biocide concentrations, E. coli): 1.03; CDI (coefficient of drug interaction), silver + biocide (Silver 5.0 μM, 1st of four biocide concentrations, E. coli): 1.26; CDI (coefficient of drug interaction), silver + biocide (Silver 5.0 μM, 2nd of four biocide concentrations, E. coli): 1.43; CDI (coefficient of drug interaction) ([…], biocide concentration 3 of 4, E. coli): 1.25; CDI (coefficient of drug interaction) ([…], biocide concentration 4 of 4, E. coli): 1.62
O=[N+]([O-])c1ncc[nH]1 [2-nitroimidazole]	–	–	–	Tox	Tox	Tox	Tox	Tox	Tox	Tox	Tox	Tox	Tox	Tox	Tox	Tox	Tox	CDI (coefficient of drug interaction) (Gold section of Table 5, first of three gold concentrations (μM, value not given), biocide concentration 3 of 4): Tox; CDI (coefficient of drug interaction) (Gold section of Table 5, second of three gold concentrations (μM, value not given), biocide concentration 3 of 4): Tox; CDI (coefficient of drug interaction) (Gold section of Table 5, third of three gold concentrations (μM, value not given), biocide concentration 3 of 4): Tox; CDI (coefficient of drug interaction), silver + biocide (Silver 5.0 μM, 4th of four biocide concentrations, E. coli): Tox
O=C1C=C(O)C(=O)c2ccccc21 [lawsone]	Tox	Tox	Tox	–	–	–	–	–	–	–	–	–	–	–	Tox	Tox	Tox	–
